Assays:
Format in all cases: cell-based
[1] = target: T1, MAVS (Homo sapiens, UniProt Q7Z434); test: competition with 4-OI-alk in affinity pull-down, immunoblot; settings: covalent; 125 μM 4-OI for 30 min, then 125 μM 4-OI-alk for 4 h in intact 786-O cells
T1 construct: endogenous full-length protein in 786-O cells, detected by anti-MAVS immunoblot

[2] = target: T2, IKKβ (Homo sapiens, UniProt O14920); test: as above; settings: covalent; 125 μM 4-OI for 30 min, then 125 μM 4-OI-alk for 4 h in intact 786-O cells
T2 construct: gene IKBKB; endogenous full-length protein in 786-O cells, detected by anti-IKKβ immunoblot
T2 sequence (O14920 1-756): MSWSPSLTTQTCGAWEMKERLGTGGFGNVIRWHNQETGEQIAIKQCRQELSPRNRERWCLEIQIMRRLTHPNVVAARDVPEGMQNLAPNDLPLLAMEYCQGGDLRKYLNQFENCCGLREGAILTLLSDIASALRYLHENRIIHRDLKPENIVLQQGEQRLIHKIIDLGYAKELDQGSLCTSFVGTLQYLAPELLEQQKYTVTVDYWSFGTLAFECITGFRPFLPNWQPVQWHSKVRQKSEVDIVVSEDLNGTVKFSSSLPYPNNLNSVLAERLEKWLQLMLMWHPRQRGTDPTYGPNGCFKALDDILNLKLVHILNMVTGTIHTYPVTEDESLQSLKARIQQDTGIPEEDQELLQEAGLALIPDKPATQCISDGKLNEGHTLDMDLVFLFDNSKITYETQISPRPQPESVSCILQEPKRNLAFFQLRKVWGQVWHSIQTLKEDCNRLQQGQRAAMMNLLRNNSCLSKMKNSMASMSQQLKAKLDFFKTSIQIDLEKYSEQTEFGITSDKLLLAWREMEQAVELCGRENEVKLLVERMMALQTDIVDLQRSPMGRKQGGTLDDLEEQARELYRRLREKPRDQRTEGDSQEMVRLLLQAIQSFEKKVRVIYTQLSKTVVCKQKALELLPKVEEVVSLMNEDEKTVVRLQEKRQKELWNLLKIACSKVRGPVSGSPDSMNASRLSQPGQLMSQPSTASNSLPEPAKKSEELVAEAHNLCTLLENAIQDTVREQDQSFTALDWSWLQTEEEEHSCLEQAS

[3] = target: T3, JAK1 (Homo sapiens, UniProt P23458); test: alkyne probe labelling in cells, CuAAC to biotin azide, streptavidin pull-down, immunoblot; settings: covalent; 125 μM in intact 786-O cells
T3 construct: endogenous full-length protein in 786-O cells, detected by anti-Jak1 immunoblot

[4] = target: T2, IKKβ; test: as above; settings: covalent; 125 μM in intact 786-O cells
[5] = target: T1, MAVS; test: as above; settings: covalent; 125 μM, 4 or 24 h in intact 786-O cells
[6] = target: T4, Flag-MAVS (Homo sapiens, UniProt Q7Z434); test: alkyne probe labelling in transfected cells, CuAAC to biotin azide, streptavidin pull-down, anti-Flag immunoblot; settings: covalent; 125 μM, 4 h in intact HEK293T cells
T4 construct: Flag-tagged MAVS expressed from plasmid in HEK293T cells
T4 sequence (Q7Z434 2-540): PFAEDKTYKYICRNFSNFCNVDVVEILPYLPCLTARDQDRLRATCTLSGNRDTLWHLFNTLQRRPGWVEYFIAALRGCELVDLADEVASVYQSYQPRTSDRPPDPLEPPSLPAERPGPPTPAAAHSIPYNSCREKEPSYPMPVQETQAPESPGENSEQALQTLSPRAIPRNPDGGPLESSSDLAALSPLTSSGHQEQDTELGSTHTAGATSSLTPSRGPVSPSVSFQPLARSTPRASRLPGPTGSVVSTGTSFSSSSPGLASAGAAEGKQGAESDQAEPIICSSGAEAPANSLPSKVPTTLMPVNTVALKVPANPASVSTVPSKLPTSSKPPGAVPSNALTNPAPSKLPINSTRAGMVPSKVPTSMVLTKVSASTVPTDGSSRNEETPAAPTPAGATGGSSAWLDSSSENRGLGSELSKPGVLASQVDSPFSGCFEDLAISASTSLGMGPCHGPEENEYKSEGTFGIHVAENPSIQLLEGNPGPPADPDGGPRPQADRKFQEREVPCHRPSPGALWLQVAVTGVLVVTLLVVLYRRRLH

T1 sequence (Q7Z434 2-540): as above
T3 sequence (P23458 whole entry): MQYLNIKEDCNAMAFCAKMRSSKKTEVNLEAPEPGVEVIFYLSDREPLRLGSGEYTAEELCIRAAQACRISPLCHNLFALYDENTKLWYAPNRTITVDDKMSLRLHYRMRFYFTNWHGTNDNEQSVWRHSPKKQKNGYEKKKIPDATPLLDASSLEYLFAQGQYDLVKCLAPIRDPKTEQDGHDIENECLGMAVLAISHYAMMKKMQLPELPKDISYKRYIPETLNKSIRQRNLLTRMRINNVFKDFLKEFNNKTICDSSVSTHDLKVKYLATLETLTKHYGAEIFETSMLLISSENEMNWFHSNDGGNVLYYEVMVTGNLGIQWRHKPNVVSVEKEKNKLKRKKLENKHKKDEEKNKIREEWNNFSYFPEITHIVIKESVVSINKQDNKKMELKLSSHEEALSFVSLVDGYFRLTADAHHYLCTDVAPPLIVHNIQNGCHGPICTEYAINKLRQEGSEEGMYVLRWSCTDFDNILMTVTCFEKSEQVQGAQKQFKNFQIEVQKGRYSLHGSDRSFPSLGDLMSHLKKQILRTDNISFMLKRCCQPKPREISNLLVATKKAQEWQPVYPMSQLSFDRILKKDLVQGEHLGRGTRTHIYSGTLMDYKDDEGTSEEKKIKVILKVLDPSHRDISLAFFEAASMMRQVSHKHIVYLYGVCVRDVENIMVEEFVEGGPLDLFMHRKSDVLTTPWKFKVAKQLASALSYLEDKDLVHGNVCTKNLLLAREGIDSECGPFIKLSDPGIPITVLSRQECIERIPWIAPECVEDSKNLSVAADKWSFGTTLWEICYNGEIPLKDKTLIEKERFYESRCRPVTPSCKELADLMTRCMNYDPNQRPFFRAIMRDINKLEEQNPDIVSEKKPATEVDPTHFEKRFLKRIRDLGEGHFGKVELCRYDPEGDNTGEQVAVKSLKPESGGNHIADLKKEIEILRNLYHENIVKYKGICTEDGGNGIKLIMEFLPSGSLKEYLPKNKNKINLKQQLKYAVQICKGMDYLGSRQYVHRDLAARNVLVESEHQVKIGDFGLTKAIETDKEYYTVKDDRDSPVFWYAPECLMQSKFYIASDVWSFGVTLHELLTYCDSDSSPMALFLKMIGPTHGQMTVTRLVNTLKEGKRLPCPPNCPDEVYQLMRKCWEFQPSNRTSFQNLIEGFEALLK

Compound	competition with 4-OI-alk in affinity pull-down, immunoblot [1]	competition with 4-OI-alk in affinity pull-down, immunoblot [2]	alkyne probe labelling in cells, CuAAC to biotin azide, streptavidin pull-down, [3]	alkyne probe labelling in cells, CuAAC to biotin azide, streptavidin pull-down, [4]	alkyne probe labelling in cells, CuAAC to biotin azide, streptavidin pull-down, [5]	alkyne probe labelling in transfected cells, CuAAC to biotin azide, streptavidin [6]
C=C(CC(=O)OCCCCCCCC)C(=O)O [4-OI, 4-octyl itaconate]	non-alkyne-tagged 4-OI to compete with 4-OI-alk led to a reduced interaction between MAVS and 4-OI-alk	non-tagged 4-OI competed with 4-OI-alk and reduced the interaction between IKKβ and 4-OI-alk	–	–	–	–
C#CCCCCCCOC(=O)CC(=C)C(=O)O [4-OI-alk, 2-methylene-4-(oct-7-yn-1-yloxy)−4-oxobutanoic acid]	–	–	We confirmed the binding of 4-OI-alk to JAK1 in our cellular model	We further validated the interaction between IKKβ and 4-OI-alk in cancer cells by pull-down	We observed an enrichment in 4-OI-alk labeling of MAVS, demonstrating the protein-drug interaction	partial reduction of 4-OI-alk labeling of MAVS C283A compared to MAVS wt
